# Assay results taken from PMC9896953, “Structural basis of unisite catalysis of bacterial F0F1-ATPase” (PNAS Nexus, 2022).
# Tests used:
# [1] = target: T1, ΔεCT-F0F1 (F0F1 with C-terminal-truncated ε subunit) (Bacillus sp. PS3, UniProt P07677+P09219); assay: cryo-EM structure; type: binding; conditions: unisite conditions (substoichiometric ATP with PEP / pyruvate kinase), 25 °C, pH 8.0; catalytic site of closed βTP
# T1 construct: gene atpD; holo complex, ε lacks residues 83-133; derived from pTR19-ASDS, expressed in E. coli, DDM-solubilised, Ni-NTA purified, nucleotide-depleted; PS3 origin is judgement; with ATP synthase gamma chain; ATP synthase epsilon chain; ATP synthase subunit delta; ATP synthase subunit a; ATP synthase subunit b; ATP synthase subunit c
# [2] = target: T2, wt-F0F1 (wild-type F0F1-ATPase / ATP synthase) (Bacillus sp. PS3, UniProt P07677+P07678+P09219); assay: cryo-EM structure; type: binding
# T2 construct: gene atpD; holo complex α3β3γ1ε1δ1a1b2c10 from pTR19-ASDS, expressed in E. coli DK8, DDM-solubilised, Ni-NTA purified, nucleotide-depleted; with ATP synthase gamma chain; ATP synthase epsilon chain; ATP synthase subunit delta; ATP synthase subunit a; ATP synthase subunit b; ATP synthase subunit c
SMILES,cryo-EM structure [1],"cryo-EM structure ([2]; sample exposed to 4 mM ATPγS, catalytic βDP (ε down), βTP and βDP (ε up))","cryo-EM structure ([2]; 4 mM ATPγS, ε-down form: catalytic βE and βTP and noncatalytic α sites, also bound in the retracted ε subunit (second site), ε-up form: βE)"
Nc1ncnc2c1ncn2[C@@H]1O[C@H](COP(=O)(O)OP(=O)(O)O)[C@@H](O)[C@H]1O [ADP],revealed a nucleotide density due to ADP at the catalytic site in βTP,"“closed in βTP with ADP,” and “open in βDP with ADP”",
Nc1ncnc2c1ncn2[C@@H]1O[C@H](COP(=O)(O)OP(=O)(O)OP(O)(O)=S)[C@@H](O)[C@H]1O [ATPγS],,,"“open in βE with ATPγS,” “closed in βTP with ATPγS,” and “closed in βDP with ADP"
